Measured values as given in ChEMBL document CHEMBL5154747, “Discovery of new carbonic anhydrase IX inhibitors as anticancer agents by toning the hydrophobic and hydrophilic rims of the active site to encounter the dual-tail approach” (Eur J Med Chem, 2022).

What was measured:
[1] = tested on: K562; assay: Anticancer activity against human K562 cells assessed as cell growth inhibition incubated for 48 hrs by SRB assay; type: functional; conditions: read-out: LC50 (the source's name)
[2] = tested on: 786-0; assay: Anticancer activity against human 786-0 cells assessed as cell growth inhibition incubated for 48 hrs by SRB assay; type: functional
[3] = tested on: MDA-MB-231; assay: Anticancer activity against human MDA-MB-231 cells assessed as cell growth inhibition incubated for 48 hrs by SRB assay; type: functional
[4] = tested on: HOP-92; assay: Anticancer activity against human HOP-92 cells assessed as cell growth inhibition incubated for 48 hrs by SRB assay; type: functional; conditions: read-out: LC50 (the source's name)
[5] = tested on: NCI-H23; assay: Anticancer activity against human NCI-H23 cells assessed as cell growth inhibition incubated for 48 hrs by SRB assay; type: functional
[6] = tested on: RXF 393; assay: Cytotoxicity against human RXF 393 cells assessed as inhibition of cell viability incubated for 72 hrs under hypoxia condition by MTT assay; type: functional, cell-based; conditions: RXF 393, 72 h
[7] = tested on: SW-620; assay: Anticancer activity against human SW-620 cells assessed as cell growth inhibition incubated for 48 hrs by SRB assay; type: functional
[8] = tested on: HOP-62; assay: Anticancer activity against human HOP-62 cells assessed as cell growth inhibition incubated for 48 hrs by SRB assay; type: functional
[9] = tested on: NCI-H226; assay: Anticancer activity against human NCI-H226 cells assessed as cell growth inhibition incubated for 48 hrs by SRB assay; type: functional; conditions: read-out: LC50 (the source's name)
[10] = tested on: NCI-H322M; assay: Anticancer activity against human NCI-H322M cells assessed as cell growth inhibition incubated for 48 hrs by SRB assay; type: functional; conditions: read-out: LC50 (the source's name)
[11] = tested on: A549; assay: Anticancer activity against human A549 cells assessed as cell growth inhibition incubated for 48 hrs by SRB assay; type: functional
[12] = tested on: HCT-116; assay: Anticancer activity against human HCT-116 cells assessed as cell growth inhibition incubated for 48 hrs by SRB assay; type: functional
[13] = tested on: SK-MEL-5; assay: Cytotoxicity against human SK-MEL-5 cells assessed as inhibition of cell viability incubated for 72 hrs under hypoxia condition by MTT assay; type: functional, cell-based; conditions: SK-MEL-5, 72 h
[14] = tested on: SF-539; assay: Anticancer activity against human SF-539 cells assessed as cell growth inhibition incubated for 48 hrs by SRB assay; type: functional
[15] = tested on: NCI/ADR-RES; assay: Anticancer activity against human NCI/ADR-RES cells assessed as cell growth inhibition incubated for 48 hrs by SRB assay; type: functional
[16] = tested on: MDA-MB-435; assay: Anticancer activity against human MDA-MB-435 cells assessed as cell growth inhibition incubated for 48 hrs by SRB assay; type: functional
[17] = tested on: TK-10; assay: Anticancer activity against human TK-10 cells assessed as cell growth inhibition incubated for 48 hrs by SRB assay; type: functional; conditions: read-out: LC50 (the source's name)
[18] = tested on: SK-MEL-28; assay: Anticancer activity against human SK-MEL-28 cells assessed as cell growth inhibition incubated for 48 hrs by SRB assay; type: functional; conditions: read-out: LC50 (the source's name)
[19] = tested on: UACC-62; assay: Anticancer activity against human UACC-62 cells assessed as cell growth inhibition incubated for 48 hrs by SRB assay; type: functional
[20] = tested on: OVCAR-5; assay: Anticancer activity against human OVCAR-5 cells assessed as cell growth inhibition incubated for 48 hrs by SRB assay; type: functional; conditions: read-out: LC50 (the source's name)
[21] = tested on: SR; assay: Anticancer activity against human SR cells assessed as cell growth inhibition incubated for 48 hrs by SRB assay; type: functional; conditions: read-out: LC50 (the source's name)
[22] = tested on: SF-295; assay: Anticancer activity against human SF-295 cells assessed as cell growth inhibition incubated for 48 hrs by SRB assay; type: functional; conditions: read-out: LC50 (the source's name)
[23] = tested on: COLO 205; assay: Anticancer activity against human COLO 205 cells assessed as cell growth inhibition incubated for 48 hrs by SRB assay; type: functional
[24] = tested on: NCI-H522; assay: Anticancer activity against human NCI-H522 cells assessed as cell growth inhibition incubated for 48 hrs by SRB assay; type: functional; conditions: read-out: LC50 (the source's name)
[25] = tested on: SK-MEL-2; assay: Anticancer activity against human SK-MEL-2 cells assessed as cell growth inhibition incubated for 48 hrs by SRB assay; type: functional; conditions: read-out: LC50 (the source's name)
[26] = tested on: OVCAR-3; assay: Anticancer activity against human OVCAR-3 cells assessed as cell growth inhibition incubated for 48 hrs by SRB assay; type: functional
[27] = tested on: SNB-19; assay: Anticancer activity against human SNB-19 cells assessed as cell growth inhibition incubated for 48 hrs by SRB assay; type: functional; conditions: read-out: LC50 (the source's name)
[28] = tested on: HT-29; assay: Anticancer activity against human HT-29 cells assessed as cell growth inhibition incubated for 48 hrs by SRB assay; type: functional
[29] = tested on: RXF 393; assay: Anticancer activity against human RXF 393 cells assessed as cell growth inhibition incubated for 48 hrs by SRB assay; type: functional; conditions: read-out: LC50 (the source's name)
[30] = tested on: HCC 2998; assay: Anticancer activity against human HCC 2998 cells assessed as cell growth inhibition incubated for 48 hrs by SRB assay; type: functional
[31] = tested on: EKVX; assay: Anticancer activity against human EKVX cells assessed as cell growth inhibition incubated for 48 hrs by SRB assay; type: functional; conditions: read-out: LC50 (the source's name)
[32] = tested on: DU-145; assay: Anticancer activity against human DU-145 cells assessed as cell growth inhibition incubated for 48 hrs by SRB assay; type: functional
[33] = tested on: IGROV-1; assay: Anticancer activity against human IGROV-1 cells assessed as cell growth inhibition incubated for 48 hrs by SRB assay; type: functional; conditions: read-out: LC50 (the source's name)
[34] = tested on: HCC 2998; assay: Cytotoxicity against human HCC 2998 cells assessed as inhibition of cell viability incubated for 72 hrs under hypoxia condition by MTT assay; type: functional, cell-based; conditions: HCC 2998, 72 h
[35] = tested on: SN12C; assay: Anticancer activity against human SN12C cells assessed as cell growth inhibition incubated for 48 hrs by SRB assay; type: functional
[36] = tested on: A498; assay: Anticancer activity against human A498 cells assessed as cell growth inhibition incubated for 48 hrs by SRB assay; type: functional
[37] = tested on: M14; assay: Anticancer activity against human M14 cells assessed as cell growth inhibition incubated for 48 hrs by SRB assay; type: functional
[38] = tested on: UO-31; assay: Anticancer activity against human UO-31 cells assessed as cell growth inhibition incubated for 48 hrs by SRB assay; type: functional; conditions: read-out: LC50 (the source's name)
[39] = tested on: HCT-15; assay: Anticancer activity against human HCT-15 cells assessed as cell growth inhibition incubated for 48 hrs by SRB assay; type: functional
[40] = tested on: CCRF-CEM; assay: Anticancer activity against human CCRF-CEM cells assessed as cell growth inhibition incubated for 48 hrs by SRB assay; type: functional
[41] = tested on: HL-60(TB); assay: Anticancer activity against human HL-60(TB) cells assessed as cell growth inhibition incubated for 48 hrs by SRB assay; type: functional
[42] = tested on: MDA-MB-468; assay: Anticancer activity against human MDA-MB-468 cells assessed as cell growth inhibition incubated for 48 hrs by SRB assay; type: functional; conditions: read-out: LC50 (the source's name)
[43] = tested on: SK-MEL-5; assay: Anticancer activity against human SK-MEL-5 cells assessed as cell growth inhibition incubated for 48 hrs by SRB assay; type: functional
[44] = tested on: U-251; assay: Anticancer activity against human U-251 cells assessed as cell growth inhibition incubated for 48 hrs by SRB assay; type: functional
[45] = tested on: NCI-H460; assay: Anticancer activity against human NCI-H460 cells assessed as cell growth inhibition incubated for 48 hrs by SRB assay; type: functional
[46] = tested on: Malme-3M; assay: Anticancer activity against human Malme-3M cells assessed as cell growth inhibition incubated for 48 hrs by SRB assay; type: functional
[47] = tested on: CAKI-1; assay: Anticancer activity against human CAKI-1 cells assessed as cell growth inhibition incubated for 48 hrs by SRB assay; type: functional
[48] = tested on: KM12; assay: Anticancer activity against human KM12 cells assessed as cell growth inhibition incubated for 48 hrs by SRB assay; type: functional
[49] = tested on: PC-3; assay: Anticancer activity against human PC-3 cells assessed as cell growth inhibition incubated for 48 hrs by SRB assay; type: functional; conditions: read-out: LC50 (the source's name)
[50] = tested on: ACHN; assay: Anticancer activity against human ACHN cells assessed as cell growth inhibition incubated for 48 hrs by SRB assay; type: functional
[51] = tested on: BT-549; assay: Anticancer activity against human BT-549 cells assessed as cell growth inhibition incubated for 48 hrs by SRB assay; type: functional; conditions: read-out: LC50 (the source's name)
[52] = tested on: MOLT-4; assay: Anticancer activity against human MOLT-4 cells assessed as cell growth inhibition incubated for 48 hrs by SRB assay; type: functional
[53] = tested on: MCF7; assay: Anticancer activity against human MCF7 cells assessed as cell growth inhibition incubated for 48 hrs by SRB assay; type: functional
[54] = tested on: RPMI-8226; assay: Anticancer activity against human RPMI-8226 cells assessed as cell growth inhibition incubated for 48 hrs by SRB assay; type: functional
[55] = read-out: LC50 (the source's name)

O=c1[nH]cc(F)c(=O)[nH]1 [FLUOROURACIL]
CC50 [1]: > 100000 nM | GI50 [2]: 720 nM | CC50 [2, 55]: > 100000 nM | GI50 [3]: 6600 nM | CC50 [4]: > 100000 nM | GI50 [5]: 330 nM | CC50 [5, 55]: > 100000 nM | IC50 [6]: 28200 nM | GI50 [7]: 920 nM | CC50 [7, 55]: > 100000 nM | GI50 [8]: 390 nM | CC50 [8, 55]: > 100000 nM | CC50 [9]: > 100000 nM | CC50 [10]: > 100000 nM | GI50 [11]: 180 nM | GI50 [12]: 220 nM | IC50 [13]: 15300 nM | GI50 [14]: 60 nM | CC50 [14, 55]: > 100000 nM | GI50 [15]: 310 nM | CC50 [15, 55]: > 100000 nM | GI50 [16]: 70 nM | CC50 [17]: > 100000 nM | CC50 [18]: > 100000 nM | GI50 [19]: 520 nM | CC50 [20]: > 100000 nM | CC50 [21]: > 100000 nM | CC50 [22]: > 100000 nM | GI50 [23]: 150 nM | CC50 [23, 55]: > 100000 nM | CC50 [24]: > 100000 nM | CC50 [25]: > 100000 nM | GI50 [26]: 10 nM | CC50 [27]: > 100000 nM | GI50 [28]: 170 nM | CC50 [28, 55]: > 100000 nM | CC50 [29]: > 100000 nM | GI50 [30]: 50 nM | CC50 [30, 55]: > 100000 nM | CC50 [31]: > 100000 nM | GI50 [32]: 360 nM | CC50 [33]: > 100000 nM | IC50 [34]: 12600 nM | GI50 [35]: 490 nM | GI50 [36]: 350 nM | CC50 [36, 55]: > 100000 nM | GI50 [37]: 980 nM | CC50 [37, 55]: > 100000 nM | CC50 [38]: > 100000 nM | GI50 [39]: 110 nM | CC50 [39, 55]: > 100000 nM | GI50 [40]: 9970 nM | CC50 [40, 55]: > 100000 nM | GI50 [41]: 2300 nM | CC50 [41, 55]: > 100000 nM | CC50 [42]: > 100000 nM | GI50 [43]: 460 nM | GI50 [44]: 920 nM | CC50 [44, 55]: > 100000 nM | GI50 [45]: 50 nM | CC50 [45, 55]: > 100000 nM | GI50 [46]: 50 nM | CC50 [46, 55]: > 100000 nM | GI50 [47]: 70 nM | CC50 [47, 55]: > 100000 nM | GI50 [48]: 210 nM | CC50 [48, 55]: > 100000 nM | CC50 [49]: > 100000 nM | GI50 [50]: 270 nM | CC50 [50, 55]: > 100000 nM | CC50 [51]: > 100000 nM | GI50 [52]: 350 nM | CC50 [52, 55]: > 100000 nM | GI50 [53]: 70 nM | GI50 [54]: 40 nM
